Patent publication US11339130B1 (Blade Therapeutics, Inc., priority 2016, dated 2022)
Where two headings read alike, the source gives them in different places.

What was measured:
Human Calpain 9/NS1 = target: T1, Human Calpain 9/NS1 (Homo sapiens, UniProt O14815); experiment: Calpain inhibition continuous fluorescence (FRET) assay, Human Calpain 9/NS1; format: biochemical; conditions: read-out: Human Calpain 9/NS1 IC50
T1 sequence (O14815 1-690): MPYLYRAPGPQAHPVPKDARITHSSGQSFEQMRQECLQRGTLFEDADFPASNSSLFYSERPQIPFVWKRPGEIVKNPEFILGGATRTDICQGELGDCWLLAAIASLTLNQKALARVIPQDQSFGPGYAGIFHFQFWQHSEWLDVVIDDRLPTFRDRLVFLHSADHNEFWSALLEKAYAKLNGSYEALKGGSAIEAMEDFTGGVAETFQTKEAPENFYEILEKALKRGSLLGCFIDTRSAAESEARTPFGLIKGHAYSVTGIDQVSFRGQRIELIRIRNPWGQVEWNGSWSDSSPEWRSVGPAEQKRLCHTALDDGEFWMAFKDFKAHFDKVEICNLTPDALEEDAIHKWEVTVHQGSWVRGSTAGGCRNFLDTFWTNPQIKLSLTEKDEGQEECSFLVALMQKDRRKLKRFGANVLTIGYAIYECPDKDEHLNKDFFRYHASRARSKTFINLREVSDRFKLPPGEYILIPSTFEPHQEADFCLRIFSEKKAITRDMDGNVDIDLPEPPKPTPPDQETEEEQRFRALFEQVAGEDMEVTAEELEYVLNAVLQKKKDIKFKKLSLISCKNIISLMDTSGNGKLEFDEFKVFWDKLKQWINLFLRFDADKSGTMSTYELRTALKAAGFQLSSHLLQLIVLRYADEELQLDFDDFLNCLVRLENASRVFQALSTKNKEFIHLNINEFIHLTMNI
T1 sequence (P04632 1-268 partner): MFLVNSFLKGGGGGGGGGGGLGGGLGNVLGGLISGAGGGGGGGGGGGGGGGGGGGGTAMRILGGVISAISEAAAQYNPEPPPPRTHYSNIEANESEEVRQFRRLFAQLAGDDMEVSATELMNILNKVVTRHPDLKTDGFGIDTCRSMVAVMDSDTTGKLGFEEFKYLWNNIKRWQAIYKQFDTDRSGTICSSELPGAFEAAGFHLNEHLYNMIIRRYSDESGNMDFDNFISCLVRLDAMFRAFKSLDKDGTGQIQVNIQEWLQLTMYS
Procedure, shortened: (§1)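 Fluorescence increase from the cleaved 5-FAM/QXL 520 substrate, read at 490/520 nm, gave activity. Calcium was supplied with the substrate to activate the enzyme in situ after a 25C enzyme-inhibitor preincubation, and IC50s were fit from initial slopes.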

Human Calpain 1/NS1 = target: T2, Human Calpain 1/NS1 (Homo sapiens, UniProt P07384); experiment: Calpain inhibition continuous fluorescence (FRET) assay, Human Calpain 1/NS1; format: biochemical; conditions: read-out: Human Calpain 1/NS1 IC50
T2 sequence (P07384 1-714): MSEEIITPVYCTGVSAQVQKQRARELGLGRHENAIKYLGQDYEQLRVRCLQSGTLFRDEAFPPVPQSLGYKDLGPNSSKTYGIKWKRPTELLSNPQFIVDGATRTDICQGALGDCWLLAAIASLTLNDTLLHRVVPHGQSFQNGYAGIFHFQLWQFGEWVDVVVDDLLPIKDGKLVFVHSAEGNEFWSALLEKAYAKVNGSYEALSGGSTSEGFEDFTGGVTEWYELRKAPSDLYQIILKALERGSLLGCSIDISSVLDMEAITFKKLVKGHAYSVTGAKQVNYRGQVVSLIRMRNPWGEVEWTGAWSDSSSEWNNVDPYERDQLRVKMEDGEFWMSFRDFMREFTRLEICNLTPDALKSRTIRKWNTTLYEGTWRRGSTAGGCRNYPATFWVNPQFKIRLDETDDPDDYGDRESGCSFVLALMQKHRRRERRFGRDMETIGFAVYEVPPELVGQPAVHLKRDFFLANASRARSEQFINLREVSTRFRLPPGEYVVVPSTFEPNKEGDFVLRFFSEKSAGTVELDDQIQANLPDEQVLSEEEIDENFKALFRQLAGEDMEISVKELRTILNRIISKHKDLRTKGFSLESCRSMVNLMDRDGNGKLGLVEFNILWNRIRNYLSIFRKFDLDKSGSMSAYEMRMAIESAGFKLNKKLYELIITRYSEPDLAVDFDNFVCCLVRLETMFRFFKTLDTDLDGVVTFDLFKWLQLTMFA
T2 sequence (P04632 1-268 partner): T1 sequence (P04632 1-268 partner)
Procedure, shortened: as §1

[1] = test system: Calpain activity in SH-SY5Y cells; experiment: SH-SY5Y + AMC fluorescence assay (Suc-LLVY-AMC substrate); format: cell-based
Human Calpain 2/NS1 = target: T3, Human Calpain 2/NS1 (Homo sapiens, UniProt P17655); experiment: Calpain inhibition continuous fluorescence (FRET) assay, Human Calpain 2/NS1; format: biochemical; conditions: read-out: Human Calpain 2/NS1 IC50
T3 sequence (P17655 1-700): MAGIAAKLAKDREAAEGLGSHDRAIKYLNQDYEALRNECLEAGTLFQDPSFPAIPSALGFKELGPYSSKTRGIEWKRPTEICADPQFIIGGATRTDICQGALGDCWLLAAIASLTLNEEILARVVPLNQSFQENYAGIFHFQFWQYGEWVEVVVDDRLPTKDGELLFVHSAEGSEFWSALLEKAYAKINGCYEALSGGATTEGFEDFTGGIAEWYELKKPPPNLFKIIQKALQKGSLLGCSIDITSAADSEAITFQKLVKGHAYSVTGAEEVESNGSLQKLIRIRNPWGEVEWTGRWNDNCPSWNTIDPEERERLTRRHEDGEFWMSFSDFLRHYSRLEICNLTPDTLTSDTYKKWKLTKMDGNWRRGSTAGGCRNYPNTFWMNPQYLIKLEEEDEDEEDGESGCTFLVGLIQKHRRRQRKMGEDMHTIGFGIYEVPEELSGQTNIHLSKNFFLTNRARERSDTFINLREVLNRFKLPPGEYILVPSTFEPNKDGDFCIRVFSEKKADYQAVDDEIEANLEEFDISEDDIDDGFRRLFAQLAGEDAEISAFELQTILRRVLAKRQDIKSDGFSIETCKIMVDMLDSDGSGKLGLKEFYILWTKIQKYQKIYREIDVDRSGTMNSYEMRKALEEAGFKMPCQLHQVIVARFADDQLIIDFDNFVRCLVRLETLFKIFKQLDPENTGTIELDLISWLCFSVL
T3 sequence (P04632 1-268 partner): T1 sequence (P04632 1-268 partner)
Procedure, shortened: as §1

[2] = Column E, read-out: SH-SY5Y + AMC IC50

Row | Compound | IC50 (Human Calpain 9/NS1) | IC50 (Human Calpain 1/NS1) | IC50 ([1]; read-out: SH-SY5Y + AMC IC50) | IC50 (Human Calpain 2/NS1) | IC50 (Human Calpain 9/NS1; Column C) | IC50 (Human Calpain 1/NS1; Column A) | IC50 [1, 2] | IC50 (Human Calpain 2/NS1; Column B) | IC50 ([1]; read-out: SH-SY5Y + AMC IC50, Column E)
1 | O=C[C@H](Cc1ccccc1)NC(=O)c1scnc1-c1ccccc1 [Compound 6, (S)—N-(1-oxo-3-phenylpropan-2-yl)-4-phenylthiazole-5-carboxamide] |  |  |  |  | < 3 µM | < 3 µM | > 25 µM | < 3 µM | 
2 | COC(=O)NCc1cccc(-n2nc(C)cc2C(=O)N[C@@H](Cc2ccccc2)C(=O)C(N)=O)c1 [Compound 140, Methyl (S)-(3-(5-((4-amino-3,4-dioxo-1-phenylbutan-2-yl)carbamoyl)-3-methyl-1H-pyrazol-1-yl)benzyl)carbamate] |  |  |  |  | < 3 µM | < 3 µM |  | < 3 µM | 10 to 25 µM
3 | Cc1cc(C(=O)N[C@@H](Cc2ccccc2)C(=O)C(N)=O)n(-c2cccc(C(F)(F)F)n2)n1 [Compound 59] |  |  |  |  | < 3 µM | < 3 µM | < 10 µM | < 3 µM | 
4 | NC(=O)C(=O)[C@H](Cc1ccccc1)NC(=O)c1cc(Cl)sc1-c1ccccc1 [Compound 271, (S)—N-(4-amino-3,4-dioxo-1-phenylbutan-2-yl)-5-chloro-2-phenylthiophene-3-carboxamide] |  |  |  |  | < 3 µM | < 3 µM | > 25 µM | < 3 µM | 
5 | NC(=O)C(=O)[C@H](Cc1ccccc1)NC(=O)c1cc(Cl)nn1-c1ccccc1 [Compound 281, (S)—N-(4-amino-3,4-dioxo-1-phenylbutan-2-yl)-3-chloro-1-phenyl-1H-pyrazole-5-carboxamide] |  |  |  |  | < 3 µM | < 3 µM | 10 to 25 µM | < 3 µM | 
6 | C[C@@H]1C[C@@H](C(=O)NC(Cc2ccccc2)C(=O)C(N)=O)N(c2ccccc2)C1 (stereo partly drawn) [Compound 292, (2S,4R)—N-(4-amino-3,4-dioxo-1-phenylbutan-2-yl)-4-methyl-1-phenylpyrrolidine-2-carboxamide] |  |  |  |  | < 3 µM | < 3 µM | > 25 µM | < 3 µM | 
7 | (S)—N-(4-amino-3,4-dioxo-1-phenylbutan-2-yl)-1-methyl-3-(pyrimidin-4-yl)-1H-pyrazole-4-carboxamide [Compound 193] |  |  |  |  | 3 to 10 µM | 3 to 10 µM | > 25 µM | < 3 µM | 
8 | Cc1cc(C(=O)N[C@@H](Cc2ccccc2)C(=O)C(N)=O)n(-c2cccc(-c3ccccc3F)c2)n1 [Compound 214, (S)—N-(4-amino-3,4-dioxo-1-phenylbutan-2-yl)-1-(2′-fluoro-[1,1′-biphenyl]-3-yl)-3-methyl-1H-pyrazole-5-carboxamide] |  |  |  |  | < 3 µM | < 3 µM | > 25 µM | < 3 µM | 

More lines, main results first:

Row | IC50 (Human Calpain 9/NS1) | IC50 (Human Calpain 1/NS1) | IC50 ([1]; read-out: SH-SY5Y + AMC IC50) | IC50 (Human Calpain 2/NS1) | IC50 (Human Calpain 9/NS1; Column C) | IC50 (Human Calpain 1/NS1; Column A) | IC50 [1, 2] | IC50 (Human Calpain 2/NS1; Column B) | Compound | IC50 ([1]; read-out: SH-SY5Y + AMC IC50, Column E)
9 | > 10 µM | > 10 µM | > 25 µM | > 10 µM |  |  |  |  | Cn1cc(C(=O)NC(C=O)c2ccccc2C(F)(F)F)c(-c2ccccc2F)n1 (centres unmarked) [Compound 519, 3-(2-Fluorophenyl)-1-METHYL-N-(2-oxo-1-(2-(trifluoromethyl)phenyl)ethyl)-1H-pyrazole-4-carboxamide] | 
10 | < 3 µM | < 3 µM | > 25 µM | < 3 µM |  |  |  |  | Cc1nc(C(=O)NC(Cc2ccccc2)C(=O)C(N)=O)c(-c2ccccc2)o1 (centres unmarked) [Compound 494, N-(4-amino-3,4-dioxo-1-phenylbutan-2-yl)-2-methyl-5-phenyloxazole-4-carboxamide] | 
11 | < 3 µM | < 3 µM | 10 to 25 µM | < 3 µM |  |  |  |  | NC(=O)C(=O)C(Cc1ccccc1)NC(=O)[C@@H]1CC2(CC2)CN1c1ccccc1 (stereo partly drawn) [Compound 411, (6S)—N-(4-amino-3,4-dioxo-1-phenylbutan-2-yl)-5-phenyl-5-azaspiro[2.4]heptane-6-carboxamide] | 
12 | > 10 µM | > 10 µM | > 25 µM | > 10 µM |  |  |  |  | Cc1cc(C(=O)NC(Cc2ccccc2)C(O)C(N)=O)n(-c2ccnc(Cl)n2)n1 (centres unmarked) [Compound 434, N-(4-amino-3-hydroxy-4-oxo-1-phenylbutan-2-yl)-1-(2-chloropyrimidin-4-yl)-3-methyl-1H-pyrazole-5-carboxamide] | 
13 | < 3 µM | < 3 µM | > 25 µM | < 3 µM |  |  |  |  | NC(=O)C(=O)[C@H](Cc1ccccc1)NC(=O)[C@@H]1CCCN1c1ccccc1 [Compound 308, (S)—N—((S)-4-amino-3,4-dioxo-1-phenylbutan-2-yl)-1-phenylpyrrolidine-2-carboxamide] | 
14 | < 3 µM | < 3 µM | < 10 µM | < 3 µM |  |  |  |  | NC(=O)C(=O)[C@H](Cc1ccccc1)NC(=O)c1cc(C(F)(F)F)nn1-c1ccccc1 [Compound 305, (S)—N-(4-amino-3,4-dioxo-1-phenylbutan-2-yl)-1-phenyl-3-(trifluoromethyl)-1H-pyrazole-5-carboxamide] | 
15 | < 3 µM | < 3 µM | > 25 µM | < 3 µM |  |  |  |  | NC(=O)C(=O)C(Cc1ccccc1)NC(=O)c1cn(C2CC2)nc1-c1ccc(C(F)(F)F)nc1 (centres unmarked) [Compound 414, N-(4-amino-3,4-dioxo-1-phenylbutan-2-yl)-1-cyclopropyl-3-(6-(trifluoromethyl)pyridin-3-yl)-1H-pyrazole-4-carboxamide] | 
16 | < 3 µM | < 3 µM | < 10 µM | < 3 µM |  |  |  |  | Cc1cccc(-c2nsnc2C(=O)NC(Cc2ccccc2)C(=O)C(N)=O)c1F (centres unmarked) [Compound 368, N-(4-amino-3,4-dioxo-1-phenylbutan-2-yl)-4-(2-fluoro-3-methylphenyl)-1,2,5-thiadiazole-3-carboxamide] | 
17 | < 3 µM | < 3 µM | > 25 µM | < 3 µM |  |  |  |  | COc1ccccc1-c1nn(C)cc1C(=O)NC(Cc1ccccc1)C(=O)C(N)=O (centres unmarked) [Compound 511, N-(4-amino-3,4-dioxo-1-phenylbutan-2-yl)-3-(2-methoxyphenyl)-1-methyl-1H-pyrazole-4-carboxamide] | 
